Experimental data from ChEMBL document CHEMBL6092226, “Tilting the Scales toward EGFR Mutant Selectivity: Expanding the Scope of Bivalent "Type V" Kinase Inhibitors” (J Med Chem, 2024).
Calls of active or inactive are those of the source. The rule behind the calls is not given here.

Legend:
[1] = system: BaF3; type: functional, cell-based; settings: Mus musculus, BaF3, 72 h
[2] = biological target: T1, Tyrosine-protein kinase JAK3 (Homo sapiens) (UniProt P52333); test: Inhibition of JAK3 (unknown origin) at 1 uM by Eurofins DiscoverX KINOMEscan analysis
T1 sequence (whole entry): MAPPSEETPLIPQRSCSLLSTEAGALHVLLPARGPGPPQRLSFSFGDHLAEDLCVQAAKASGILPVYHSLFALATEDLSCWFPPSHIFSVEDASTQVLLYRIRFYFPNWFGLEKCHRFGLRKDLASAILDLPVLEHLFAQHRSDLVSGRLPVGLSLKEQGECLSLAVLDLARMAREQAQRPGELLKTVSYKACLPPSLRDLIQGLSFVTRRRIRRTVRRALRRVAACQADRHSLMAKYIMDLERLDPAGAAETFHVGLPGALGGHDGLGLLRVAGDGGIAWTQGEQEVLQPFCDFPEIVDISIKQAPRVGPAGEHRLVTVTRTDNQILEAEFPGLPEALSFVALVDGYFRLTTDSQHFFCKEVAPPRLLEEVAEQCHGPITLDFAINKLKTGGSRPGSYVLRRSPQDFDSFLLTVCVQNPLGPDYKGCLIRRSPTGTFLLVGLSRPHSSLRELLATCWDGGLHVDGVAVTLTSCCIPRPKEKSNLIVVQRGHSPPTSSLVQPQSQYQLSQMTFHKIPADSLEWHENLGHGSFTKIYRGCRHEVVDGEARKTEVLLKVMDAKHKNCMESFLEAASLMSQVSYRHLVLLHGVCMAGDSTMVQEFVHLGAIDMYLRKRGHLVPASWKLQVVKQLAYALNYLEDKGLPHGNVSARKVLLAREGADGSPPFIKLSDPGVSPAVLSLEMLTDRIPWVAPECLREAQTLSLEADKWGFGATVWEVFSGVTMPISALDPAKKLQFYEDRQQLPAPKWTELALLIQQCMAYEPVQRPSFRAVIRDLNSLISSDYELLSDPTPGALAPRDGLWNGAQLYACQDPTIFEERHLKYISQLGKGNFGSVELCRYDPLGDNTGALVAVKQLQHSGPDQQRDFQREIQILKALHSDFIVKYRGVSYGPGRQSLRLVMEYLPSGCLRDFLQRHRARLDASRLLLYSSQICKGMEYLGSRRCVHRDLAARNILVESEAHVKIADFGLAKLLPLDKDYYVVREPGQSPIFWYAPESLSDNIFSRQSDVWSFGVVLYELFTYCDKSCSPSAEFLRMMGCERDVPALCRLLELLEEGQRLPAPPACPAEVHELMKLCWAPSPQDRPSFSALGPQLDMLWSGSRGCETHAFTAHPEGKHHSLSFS

[3] = system: BaF3; test: cells; settings: Mus musculus, BaF3, 72 h
[4] = system: BaF3; test: cells; settings: Mus musculus, BaF3, 72 h; remark: listed apart in the source
[5] = system: HCC827; test: cells; settings: Homo sapiens, HCC827, 72 h
[6] = system: BaF3; test: cells; settings: Mus musculus, BaF3, 72 h; remark: listed apart in the source
[7] = biological target: Epidermal growth factor receptor (Homo sapiens, UniProt P00533); test: Time-dependent irreversible inhibition of N-terminal GST-tagged wildtype human EGFR cytoplasmic domain (669 to 1210 residues) extracted from Sf21 insect cells assessed as apparent inactivation constant (Ki) incubated for 240 mins in presence of ATP by fluorescence based analysis; settings: read-out: Ki(app)
Sequence of Epidermal growth factor receptor (Homo sapiens, UniProt P00533) (P00533 whole entry, the tested form may be a part): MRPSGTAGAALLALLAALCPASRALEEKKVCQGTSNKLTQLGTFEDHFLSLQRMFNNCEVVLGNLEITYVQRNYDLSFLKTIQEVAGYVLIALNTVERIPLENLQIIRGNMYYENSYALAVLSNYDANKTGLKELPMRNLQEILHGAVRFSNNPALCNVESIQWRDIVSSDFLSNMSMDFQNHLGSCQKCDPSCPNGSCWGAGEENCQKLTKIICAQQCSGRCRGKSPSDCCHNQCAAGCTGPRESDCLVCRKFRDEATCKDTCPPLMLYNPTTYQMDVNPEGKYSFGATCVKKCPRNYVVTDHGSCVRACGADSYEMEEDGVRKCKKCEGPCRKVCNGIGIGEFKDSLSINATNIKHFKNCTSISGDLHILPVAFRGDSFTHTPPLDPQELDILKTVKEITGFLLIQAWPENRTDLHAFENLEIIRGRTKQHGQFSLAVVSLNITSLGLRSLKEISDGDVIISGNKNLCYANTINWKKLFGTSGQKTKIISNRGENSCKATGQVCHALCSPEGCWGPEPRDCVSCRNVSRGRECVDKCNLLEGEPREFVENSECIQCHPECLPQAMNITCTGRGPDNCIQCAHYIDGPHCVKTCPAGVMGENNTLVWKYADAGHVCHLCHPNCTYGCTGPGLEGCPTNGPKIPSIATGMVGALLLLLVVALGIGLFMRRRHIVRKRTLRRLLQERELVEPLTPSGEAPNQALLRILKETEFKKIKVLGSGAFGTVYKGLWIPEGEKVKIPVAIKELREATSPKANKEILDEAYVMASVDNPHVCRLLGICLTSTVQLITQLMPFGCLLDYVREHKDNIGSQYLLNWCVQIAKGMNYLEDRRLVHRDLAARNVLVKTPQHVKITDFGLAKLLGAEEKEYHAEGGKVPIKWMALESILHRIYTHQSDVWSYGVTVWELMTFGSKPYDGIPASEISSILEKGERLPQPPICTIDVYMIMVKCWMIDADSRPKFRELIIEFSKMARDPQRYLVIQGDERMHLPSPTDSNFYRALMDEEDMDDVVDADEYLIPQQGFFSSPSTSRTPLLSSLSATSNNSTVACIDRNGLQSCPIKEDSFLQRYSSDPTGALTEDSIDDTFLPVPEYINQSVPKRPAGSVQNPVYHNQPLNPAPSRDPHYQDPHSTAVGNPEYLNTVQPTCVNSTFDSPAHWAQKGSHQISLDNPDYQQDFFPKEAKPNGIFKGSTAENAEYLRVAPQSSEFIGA

[8] = biological target: Tyrosine-protein kinase Blk (Homo sapiens) (UniProt P51451); test: Inhibition of BLK (unknown origin) at 1 uM by Eurofins DiscoverX KINOMEscan analysis
Sequence of Tyrosine-protein kinase Blk (Homo sapiens) (P51451 2-505 limits assumed): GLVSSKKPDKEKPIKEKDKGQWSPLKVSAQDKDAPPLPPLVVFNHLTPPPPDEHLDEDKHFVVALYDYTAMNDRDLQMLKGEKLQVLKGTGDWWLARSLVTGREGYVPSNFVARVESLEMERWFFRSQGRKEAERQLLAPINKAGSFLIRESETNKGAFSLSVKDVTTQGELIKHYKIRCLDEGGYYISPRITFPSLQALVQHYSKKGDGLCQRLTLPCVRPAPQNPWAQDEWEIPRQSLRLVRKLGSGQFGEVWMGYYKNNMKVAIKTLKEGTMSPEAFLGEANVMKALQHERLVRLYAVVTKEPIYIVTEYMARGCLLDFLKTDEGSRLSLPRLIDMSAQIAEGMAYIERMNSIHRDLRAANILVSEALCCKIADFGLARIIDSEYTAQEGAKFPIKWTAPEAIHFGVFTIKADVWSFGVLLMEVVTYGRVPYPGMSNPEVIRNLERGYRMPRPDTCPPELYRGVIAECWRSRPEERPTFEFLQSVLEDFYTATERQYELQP

[9] = species: Homo sapiens; test: Inhibition of DMPK2 (unknown origin) at 1 uM by Eurofins DiscoverX KINOMEscan analysis relative to control
[10] = biological target: Tyrosine-protein kinase BTK (Homo sapiens) (UniProt Q06187); test: Inhibition of BTK (unknown origin) at 1 uM by Eurofins DiscoverX KINOMEscan analysis
Sequence of Tyrosine-protein kinase BTK (Homo sapiens) (Q06187 whole entry): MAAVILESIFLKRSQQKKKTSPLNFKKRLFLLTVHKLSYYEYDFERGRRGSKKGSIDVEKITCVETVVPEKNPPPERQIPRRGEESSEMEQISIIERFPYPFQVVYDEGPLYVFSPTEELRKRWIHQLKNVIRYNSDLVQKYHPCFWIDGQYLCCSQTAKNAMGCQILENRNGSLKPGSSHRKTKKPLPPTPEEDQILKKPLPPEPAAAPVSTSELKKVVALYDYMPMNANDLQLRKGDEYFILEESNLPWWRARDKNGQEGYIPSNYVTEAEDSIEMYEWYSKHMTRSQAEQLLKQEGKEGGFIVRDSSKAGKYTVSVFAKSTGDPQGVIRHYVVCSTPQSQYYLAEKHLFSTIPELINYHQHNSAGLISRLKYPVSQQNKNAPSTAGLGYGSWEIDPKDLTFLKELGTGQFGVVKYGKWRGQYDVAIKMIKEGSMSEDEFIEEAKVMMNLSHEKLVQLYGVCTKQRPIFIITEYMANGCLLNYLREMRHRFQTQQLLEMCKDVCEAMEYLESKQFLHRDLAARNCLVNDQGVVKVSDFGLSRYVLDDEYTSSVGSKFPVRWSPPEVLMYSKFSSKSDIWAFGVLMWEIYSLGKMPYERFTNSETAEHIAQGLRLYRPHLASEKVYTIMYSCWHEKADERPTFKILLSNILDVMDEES

[11] = system: BaF3; test: Antiproliferative activity against mouse BaF3 cells harboring EGFR exon 19del mutant incubated for 72 hrs by MTT assay; type: functional, cell-based; settings: BaF3, 72 h
[12] = biological target: Epidermal growth factor receptor (Homo sapiens, UniProt P00533, L858R/T790M); test: Time-dependent irreversible inhibition of GST-tagged EGFR L858R/T790M mutant cytoplasmic domain (669 to 1210 residues) (unknown origin) assessed as apparent inactivation constant (Ki) incubated for 240 mins in presence of ATP by fluorescence based analysis; settings: read-out: Ki(app)
Sequence of Epidermal growth factor receptor (Homo sapiens, UniProt P00533, L858R/T790M) (P00533 25-1210 T790M/L858R limits assumed): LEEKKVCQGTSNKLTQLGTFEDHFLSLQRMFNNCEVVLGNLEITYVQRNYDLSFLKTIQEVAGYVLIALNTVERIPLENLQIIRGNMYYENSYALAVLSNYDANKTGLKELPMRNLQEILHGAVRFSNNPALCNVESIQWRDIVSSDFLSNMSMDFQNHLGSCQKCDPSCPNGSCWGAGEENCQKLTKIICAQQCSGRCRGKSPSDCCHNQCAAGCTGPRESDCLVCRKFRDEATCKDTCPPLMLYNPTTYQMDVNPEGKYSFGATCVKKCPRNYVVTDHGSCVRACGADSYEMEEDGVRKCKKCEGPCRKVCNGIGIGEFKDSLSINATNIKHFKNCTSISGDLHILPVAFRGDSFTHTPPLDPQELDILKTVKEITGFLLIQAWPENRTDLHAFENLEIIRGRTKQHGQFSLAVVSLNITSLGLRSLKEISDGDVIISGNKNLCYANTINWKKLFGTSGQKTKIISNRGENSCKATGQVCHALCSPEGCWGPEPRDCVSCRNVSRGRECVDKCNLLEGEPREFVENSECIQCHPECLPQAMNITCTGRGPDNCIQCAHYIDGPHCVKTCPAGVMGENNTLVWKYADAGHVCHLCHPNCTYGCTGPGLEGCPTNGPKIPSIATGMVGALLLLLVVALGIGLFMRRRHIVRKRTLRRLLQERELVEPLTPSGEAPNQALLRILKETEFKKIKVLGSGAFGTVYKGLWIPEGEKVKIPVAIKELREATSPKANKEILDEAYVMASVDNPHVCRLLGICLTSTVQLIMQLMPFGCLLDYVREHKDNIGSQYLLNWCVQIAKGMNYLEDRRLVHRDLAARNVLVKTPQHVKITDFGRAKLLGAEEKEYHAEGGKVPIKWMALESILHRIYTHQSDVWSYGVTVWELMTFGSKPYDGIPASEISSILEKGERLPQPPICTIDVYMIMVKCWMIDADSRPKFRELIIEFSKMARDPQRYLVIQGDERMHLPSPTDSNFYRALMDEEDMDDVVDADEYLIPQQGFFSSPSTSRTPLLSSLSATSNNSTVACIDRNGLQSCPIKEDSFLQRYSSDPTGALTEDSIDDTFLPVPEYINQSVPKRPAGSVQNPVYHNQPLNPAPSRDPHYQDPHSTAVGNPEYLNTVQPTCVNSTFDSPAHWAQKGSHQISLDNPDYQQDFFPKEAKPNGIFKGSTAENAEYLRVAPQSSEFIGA

[13] = biological target: T2, Tyrosine-protein kinase TXK (Homo sapiens) (UniProt P42681); test: Inhibition of TXK (unknown origin) at 1 uM by Eurofins DiscoverX KINOMEscan analysis
T2 sequence (whole entry): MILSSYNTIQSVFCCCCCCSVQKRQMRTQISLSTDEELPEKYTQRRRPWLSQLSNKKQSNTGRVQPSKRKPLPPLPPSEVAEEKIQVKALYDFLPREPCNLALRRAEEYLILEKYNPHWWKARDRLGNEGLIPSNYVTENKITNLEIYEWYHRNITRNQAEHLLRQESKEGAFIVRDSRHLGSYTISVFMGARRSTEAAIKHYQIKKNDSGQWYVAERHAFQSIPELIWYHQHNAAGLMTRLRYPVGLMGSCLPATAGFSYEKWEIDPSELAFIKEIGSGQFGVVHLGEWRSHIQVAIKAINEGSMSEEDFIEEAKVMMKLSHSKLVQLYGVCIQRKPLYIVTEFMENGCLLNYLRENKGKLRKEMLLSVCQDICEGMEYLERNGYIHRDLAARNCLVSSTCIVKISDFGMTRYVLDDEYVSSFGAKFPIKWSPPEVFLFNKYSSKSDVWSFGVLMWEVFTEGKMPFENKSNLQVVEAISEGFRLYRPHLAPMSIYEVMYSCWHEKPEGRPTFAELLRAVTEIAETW

[14] = cells; settings: Homo sapiens, NCI-H1975, 72 h
[15] = Metabolic stability in pooled male human liver microsomes at 150 uM measured after 2 hrs in presence of NADPH regenerating system by LC-MS analysis; type: ADME, Microsome

C=CC(=O)Nc1ccc(OC)c(Nc2cc(-c3[nH]c(SC)nc3-c3cccc(NC(=O)c4cccc(O)c4CN4Cc5ccccc5C4=O)c3)ccn2)c1
EC50 [1]: 3900 nM
inhibition [2]: inactive
EC50 [3]: 430 nM
EC50 [4]: 150 nM
EC50 [5]: 160 nM
EC50 [6]: 750 nM
Ki [7]: 1320 nM
inhibition [8]: inactive
inhibition [9]: < 10%
inhibition [10]: inactive
EC50 [11]: 950 nM
Ki [12]: 543 nM
inhibition [13]: inactive
EC50 [14]: 330 nM
Stability [15]: Stable
